Data reported in PubChem BioAssay AID179 (DTP/NCI, 2004).
The source made the active and inactive calls.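 The calls were made as follows: active = compounds giving half or more protection of infected cells from virus-caused growth loss, again on retest; inactive = the rest.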

System: CEM cells HIV-1 protection, formazan growth assay
Assay: NCI AIDS Antiviral Assay
Details: for IC50: measured here: growth of uninfected CEM cells
In short: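 Steps: treat uninfected and HIV-1-infected human CEM cells at five drug levels; quantify growth by soluble formazan; retest any compound reaching 50% protection; classify actives from the retest.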

Row | SMILES | outcome | EC50 | IC50
1 | CN(/N=C/c1cccc2cccnc12)c1c([N+](=O)[O-])cc([N+](=O)[O-])cc1[N+](=O)[O-] | inactive | – | –
2 | COC(=O)C1C(=O)CC(C)(O)C(C(=O)OC)C1c1ccc(N(C)C)cc1 (centres undefined) | – | > 200 µM | > 200 µM
3 | CO[C@@H]1C2=CC=CC=C[C@H]2n2c(=O)n(C)c(=O)n21 | – | > 525 µM | 79.4 µM
4 | Cc1cccc(NC(=O)C(=O)C2C(=O)NC(=O)NC2=O)c1C | – | > 832 µM | 794 µM
5 | CCC1(CCO)C(=O)NC(=Nc2ccccc2)NC1=O (centres undefined) | – | > 479 µM | > 479 µM
6 | N#C/C(=C\NC(=S)N=Nc1c(O)[nH]c2ccccc12)C(=O)c1ccc2ccccc2c1 | – | > 200 µM | 120 µM
7 | O=C1c2c(ccc3c2CCCC3)CC1Cc1ccc2c(c1)CCCC2 (centres undefined) | – | > 200 µM | > 200 µM
8 | CC1(c2ccccc2)CC(c2ccccc2)=NO1 (centres undefined) | – | > 57.5 µM | > 57.5 µM
9 | OC(CNc1ncccn1)c1ccccc1 (centres undefined) | – | > 200 µM | > 200 µM
10 | CC(O)CN1C(=O)c2cccc3cc([N+](=O)[O-])cc(c23)C1=O (centres undefined) | – | > 200 µM | 12 µM
11 | CCCc1cc(=O)[nH]c(SCC(=O)O)n1 | – | > 200 µM | > 200 µM
12 | C/C=C1\CN2CCC34c5ccccc5N5C(=O)CCC(C1CC23)C54 (centres undefined) | – | > 42.7 µM | > 42.7 µM
13 | OC(C#CCN1CCCC1)(c1ccccc1)c1ccccc1Cl (centres undefined) | – | > 200 µM | 70.8 µM
14 | Cc1ccc2c(c1)CSCCO2 | – | > 105 µM | 14.8 µM
15 | CCS(=O)(=O)CCOP(=O)(c1ccccc1)c1ccccc1 | inactive | – | –
16 | COc1ccc(-c2nc(-c3cc4ccccc4oc3=O)cs2)cc1 | – | > 100 µM | > 100 µM
17 | CCCCc1ccc(C2=C(O)C(=O)C(c3ccc(CCCC)cc3)=C(O)C2=O)cc1 | – | > 43.7 µM | 3.31 µM
18 | CC(=O)Oc1ccc(C)c2c1[C@H]1CC[C@]3(C)[C@@H](OC(C)=O)CC[C@H]3[C@@H]1CC2 | – | > 200 µM | 32.4 µM
19 | Cn1c(N)c(N=O)c(=O)n(C)c1=S | – | > 200 µM | > 200 µM
20 | O=C(O)c1ccc(C(c2c(O)c3ccccc3oc2=O)c2c(O)c3ccccc3oc2=O)cc1 | – | > 200 µM | 191 µM
21 | CC(C)(C)[Si](C)(C)OCC1OC(n2cnc3c(=O)[nH]c(NC(=O)c4ccccc4)nc32)C(O[Si](C)(C)C(C)(C)C)C1O[Si](C)(C)C(C)(C)C (centres undefined) | – | > 200 µM | 9.12 µM

Row | SMILES | outcome | EC50 | IC50
22 | CC/C(=N\NS(=O)(=O)c1ccccc1)c1ccccc1 | inactive | – | –
23 | COC1/C=C/OC2(C)Oc3c(C)c(O)c4c(O)c(c(C=NN5C(C)CC(Cc6ccccc6)CC5C)c(O)c4c3C2=O)NC(=O)/C(C)=C/C=C/C(C)C(O)C(C)C(O)C(C)C(OC(C)=O)C1C (centres undefined) | – | > 200 µM | 8.71 µM
24 | CCOC(=O)c1c(N2CCOCC2)[nH]c(=O)c(C(c2ccco2)c2c(O)c(C(=O)OCC)c(N3CCOCC3)[nH]c2=O)c1O | – | > 200 µM | > 200 µM
25 | Oc1c2cc(Cl)cc1COCc1cc(Cl)cc(c1O)COCc1cc(Cl)cc(c1O)COC2 | – | > 200 µM | 38.9 µM
26 | COC(=O)C(Cc1cc(OC)c(OC)c(OC)c1)C(=O)OC | – | > 302 µM | > 302 µM
27 | N#CCOc1ccc(/C=C/C(=O)c2ccc(Cl)cc2)cc1 | – | > 200 µM | 17.4 µM
28 | C=[N+]([O-])CC[C@@]1(O)C[C@H](n2ccc(=O)[nH]c2=O)O[C@@H]1CO[Si](C)(C)C(C)(C)C | – | > 200 µM | 44.7 µM
29 | N#Cc1c([N+](=O)[O-])cc(C(F)(F)F)cc1[N+](=O)[O-] | inactive | – | –
30 | COc1cc([C@@H]2c3cc(O)c(OC)cc3C=C(C(N)=O)[C@H]2C(N)=O)ccc1O | – | > 0.2 µM | 0.0102 µM
31 | CCCNCC(=O)O[C@]1(CC)C(=O)OCc2c1cc1n(c2=O)Cc2cc3ccccc3nc2-1 | – | > 10 µM | 0.0525 µM
32 | Cc1nc(Nc2ccccc2)sc1C(=O)NNc1ccc([N+](=O)[O-])cc1[N+](=O)[O-] | – | > 63.1 µM | 38 µM
33 | CSC1=Nc2ccccc2N=C(c2ccc(Cl)cc2)C1 | – | > 12.6 µM | > 12.6 µM
34 | O=C1OC2C=CC1C1(CCOC1=O)C2 (centres undefined) | – | > 200 µM | > 200 µM
35 | Oc1cc2ccccc2cc1OC(F)(F)c1nc2ccccc2o1 | – | > 200 µM | 12.3 µM
36 | O=C(/C=C/c1ccccc1Cl)c1ccccc1 | – | > 21.4 µM | 14.5 µM
37 | O=C(COc1ccc(/C=C/C(=O)c2ccc(Cl)cc2)cc1)Nc1c(Cl)cccc1Cl | – | > 40.7 µM | > 40.7 µM
38 | O=c1[nH]c(=O)n(C2OC(CO)C(O)C2O)cc1OCCCc1ccccc1 (centres undefined) | – | > 200 µM | > 200 µM
39 | CC(=O)Nc1cccc(C[P+](c2ccccc2)(c2ccccc2)c2ccccc2)c1 | – | > 200 µM | 91.2 µM
40 | Clc1ccc(Cl)c2[s+]snc12 | – | > 14.5 µM | > 14.5 µM
41 | COC(=O)Cc1c([C@@]2(C)CCCC(C)(C)C2)ccc2c1C(=O)OC2 | inactive | – | –
42 | O=c1c2ccccc2c2c3c1cccc3c1cccc3c(=O)c4ccccc4c2c31 | – | > 7.08 µM | > 7.08 µM
